# Toxic doses and inconclusive results are not listed.
# Tested on: L1210 leukemia ip in BDF1 mice, survival T/C
# Assay: NCI In Vivo Anticancer Drug Screen. Data for tumor model L1210 Leukemia (intraperitoneal) in B6D2F1 (BDF1) mice
# Conditions: endpoint: mean survival time, higher = longer survival
# Method in brief: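 Antitumor effect is assessed in tumor-bearing animals. Survival in the compound arm is compared with a vehicle-dosed control arm and expressed as their quotient.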
# [1] = dose: 100.0 mg/kg/injection, schedule: Q01DX001 (ip), vehicle: saline
# [2] = dose: 100.0 mg/kg/injection, schedule: Q04DX003 (ip), vehicle: saline with Tween-80
# [3] = dose: 200.0 mg/kg/injection, schedule: Q04DX003 (ip), vehicle: saline with Tween-80
# [4] = dose: 400.0 mg/kg/injection, schedule: Q04DX003 (ip), vehicle: saline with Tween-80
# [5] = dose: 50.0 mg/kg/injection, schedule: Q01DX001 (ip), vehicle: carboxymethylcellulose (CMC)
# [6] = dose: 100.0 mg/kg/injection, schedule: Q01DX001 (ip), vehicle: carboxymethylcellulose (CMC)
structure (smiles),measurement,setting,value
O=c1cc(CO)oc(C(Nc2cccc(Cl)c2)c2ccccc2)c1O (centres undefined),T/C,[1],91 % of control
same,T/C,"dose: 200.0 mg/kg/injection, schedule: Q01DX001 (ip), vehicle: saline",95 % of control
same,T/C,"dose: 400.0 mg/kg/injection, schedule: Q01DX001 (ip), vehicle: saline",89 % of control
CCCCCC(=O)c1c(O)cc2c(c1O)C(=O)c1c(O)cc(O)cc1C2=O,T/C,[1],86 % of control
same,T/C,"dose: 300.0 mg/kg/injection, schedule: Q01DX001 (ip), vehicle: saline",91 % of control
CCCCNC(C)(C)CS,T/C,"dose: 6.25 mg/kg/injection, schedule: Q01DX009 (ip), vehicle: saline",105 % of control
same,T/C,"dose: 12.5 mg/kg/injection, schedule: Q01DX009 (ip), vehicle: saline",94 % of control
same,T/C,"dose: 12.5 mg/kg/injection, schedule: Q04DX003 (ip), vehicle: saline",100 % of control
same,T/C,"dose: 25.0 mg/kg/injection, schedule: Q01DX009 (ip), vehicle: saline",96 % of control
same,T/C,"dose: 25.0 mg/kg/injection, schedule: Q04DX003 (ip), vehicle: saline",94 % of control
same,T/C,"dose: 50.0 mg/kg/injection, schedule: Q01DX009 (ip), vehicle: saline",102 % of control
same,T/C,"dose: 50.0 mg/kg/injection, schedule: Q04DX003 (ip), vehicle: saline",102 % of control
same,T/C,"dose: 75.0 mg/kg/injection, schedule: Q01DX009 (ip), vehicle: saline",105 % of control
CCCCCCCCCCCCCCCCCC(CCCCCCCCCCCCCCCCC)=NNC(N)=S,T/C,"dose: 100.0 mg/kg/injection, schedule: Q01DX009 (ip), vehicle: other",92 % of control
same,T/C,"dose: 200.0 mg/kg/injection, schedule: Q01DX009 (ip), vehicle: other",89 % of control
same,T/C,"dose: 400.0 mg/kg/injection, schedule: Q01DX009 (ip), vehicle: other",97 % of control
O=COCCc1ccccc1,T/C,"dose: 100.0 mg/kg/injection, schedule: Q01DX009 (ip), vehicle: Klucel (hydroxypropylcellulose) (HPC)",102 % of control
same,T/C,"dose: 200.0 mg/kg/injection, schedule: Q01DX009 (ip), vehicle: Klucel (hydroxypropylcellulose) (HPC)",102 % of control
same,T/C,"dose: 400.0 mg/kg/injection, schedule: Q01DX009 (ip), vehicle: Klucel (hydroxypropylcellulose) (HPC)",97 % of control
CC(=O)CC1CCC(CC(C)=O)CC1 (centres undefined),T/C,"dose: 100.0 mg/kg/injection, schedule: Q04DX002 (ip), vehicle: other",98 % of control
same,T/C,"dose: 200.0 mg/kg/injection, schedule: Q04DX002 (ip), vehicle: other",90 % of control
same,T/C,"dose: 400.0 mg/kg/injection, schedule: Q04DX002 (ip), vehicle: other",98 % of control
Cc1ccc(C(=O)NCCCOc2ccc(N)cc2Cl)cc1S(=O)(=O)F,T/C,"dose: 50.0 mg/kg/injection, schedule: Q01DX009 (ip), vehicle: saline with Tween-80",104 % of control
same,T/C,"dose: 100.0 mg/kg/injection, schedule: Q01DX009 (ip), vehicle: saline with Tween-80",95 % of control
same,T/C,[2],103 % of control
same,T/C,"dose: 200.0 mg/kg/injection, schedule: Q01DX009 (ip), vehicle: saline with Tween-80",90 % of control
same,T/C,[3],94 % of control
same,T/C,[4],105 % of control
Cc1nc2sc3c(c2c(=S)[nH]1)CCCC3,T/C,"dose: 100.0 mg/kg/injection, schedule: Q01DX001 (ip), vehicle: saline sonified",86 % of control
same,T/C,"dose: 200.0 mg/kg/injection, schedule: Q01DX001 (ip), vehicle: saline sonified",89 % of control
same,T/C,"dose: 400.0 mg/kg/injection, schedule: Q01DX001 (ip), vehicle: saline sonified",91 % of control
Cc1c(CNc2ccc(C(=O)NC(CC(=O)O)C(=O)O)cc2)ccc2nc(N)nc(N)c12 (centres undefined),T/C,"dose: 0.05 mg/kg/injection, schedule: Q01DX009 (ip), vehicle: other",122 % of control
same,T/C,"dose: 0.06 mg/kg/injection, schedule: Q01DX009 (ip), vehicle: other",117 % of control
same,T/C,"dose: 0.1 mg/kg/injection, schedule: Q01DX009 (ip), vehicle: carboxymethylcellulose (CMC)",94 % of control
same,T/C,"dose: 0.1 mg/kg/injection, schedule: Q01DX009 (ip), vehicle: other",152 % of control
same,T/C,"dose: 0.19 mg/kg/injection, schedule: Q01DX009 (ip), vehicle: other",115 % of control
same,T/C,"dose: 0.19 mg/kg/injection, schedule: Q01DX009 (ip), vehicle: water",175 % of control
same,T/C,"dose: 0.25 mg/kg/injection, schedule: Q01DX009 (ip), vehicle: other",101 % of control
same,T/C,"dose: 0.38 mg/kg/injection, schedule: Q01DX009 (ip), vehicle: other",102 % of control
same,T/C,"dose: 0.38 mg/kg/injection, schedule: Q01DX009 (ip), vehicle: water",116 % of control
same,T/C,"dose: 0.5 mg/kg/injection, schedule: Q02DX005 (ip), vehicle: water",205 % of control
same,T/C,"dose: 0.75 mg/kg/injection, schedule: Q01DX009 (ip), vehicle: carboxymethylcellulose (CMC)",91 % of control
same,T/C,"dose: 0.75 mg/kg/injection, schedule: Q01DX009 (ip), vehicle: water",94 % of control
same,T/C,"dose: 1.0 mg/kg/injection, schedule: Q02DX005 (ip), vehicle: water",158 % of control
same,T/C,"dose: 1.5 mg/kg/injection, schedule: Q01DX009 (ip), vehicle: water",98 % of control
same,T/C,"dose: 1.56 mg/kg/injection, schedule: Q01DX001 (ip), vehicle: other",124 % of control
same,T/C,"dose: 1.69 mg/kg/injection, schedule: Q04DX003 (ip), vehicle: water",167 % of control
same,T/C,"dose: 3.0 mg/kg/injection, schedule: Q01DX009 (ip), vehicle: water",97 % of control
same,T/C,"dose: 3.38 mg/kg/injection, schedule: Q04DX003 (ip), vehicle: water",173 % of control
same,T/C,"dose: 4.0 mg/kg/injection, schedule: Q02DX005 (ip), vehicle: water",118 % of control
same,T/C,"dose: 6.75 mg/kg/injection, schedule: Q04DX003 (ip), vehicle: water",195 % of control
same,T/C,"dose: 8.0 mg/kg/injection, schedule: Q02DX005 (ip), vehicle: water",89 % of control
same,T/C,"dose: 12.5 mg/kg/injection, schedule: Q01DX001 (ip), vehicle: other",159 % of control
same,T/C,"dose: 13.5 mg/kg/injection, schedule: Q04DX003 (ip), vehicle: water",224 % of control
same,T/C,"dose: 25.0 mg/kg/injection, schedule: Q01DX001 (ip), vehicle: carboxymethylcellulose (CMC)",98 % of control
same,T/C,"dose: 25.0 mg/kg/injection, schedule: Q01DX001 (ip), vehicle: other",98 % of control
same,T/C,"dose: 27.0 mg/kg/injection, schedule: Q04DX003 (ip), vehicle: water",119 % of control
same,T/C,[5],155 % of control
same,T/C,[6],158 % of control
CC(=O)c1c(O)c(C)c(O)c2c1OC1=CC(=O)C(C(C)=O)C(=O)C12C (centres undefined),T/C,"dose: 5.0 mg/kg/injection, schedule: Q01DX009 (ip), vehicle: gum acacia",103 % of control
same,T/C,"dose: 10.0 mg/kg/injection, schedule: Q01DX009 (ip), vehicle: gum acacia",101 % of control
same,T/C,"dose: 20.0 mg/kg/injection, schedule: Q01DX009 (ip), vehicle: gum acacia",103 % of control
same,T/C,"dose: 40.0 mg/kg/injection, schedule: Q01DX009 (ip), vehicle: gum acacia",94 % of control
same,T/C,"dose: 80.0 mg/kg/injection, schedule: Q01DX009 (ip), vehicle: gum acacia",86 % of control
CCCCOCCCO,T/C,"dose: 100.0 mg/kg/injection, schedule: Q01DX009 (ip), vehicle: saline",91 % of control
same,T/C,"dose: 200.0 mg/kg/injection, schedule: Q01DX009 (ip), vehicle: saline",92 % of control
same,T/C,"dose: 400.0 mg/kg/injection, schedule: Q01DX009 (ip), vehicle: saline",95 % of control
CC(=O)OC1CCC2(C)C(=CCC3C2CCC2(C)C(C(C)C(O)C4C(=O)OCC4C(c4ccccc4)(c4ccccc4)c4ccccc4)CCC32)C1 (centres undefined),T/C,"dose: 100.0 mg/kg/injection, schedule: Q04DX002 (sc), vehicle: gum acacia",95 % of control
same,T/C,"dose: 200.0 mg/kg/injection, schedule: Q04DX002 (sc), vehicle: gum acacia",95 % of control
same,T/C,"dose: 400.0 mg/kg/injection, schedule: Q04DX002 (sc), vehicle: gum acacia",92 % of control
CCOC(=O)Cn1c(=O)c2ccccc2c2cc(Br)ccc21,T/C,"dose: 100.0 mg/kg/injection, schedule: Q01DX001 (ip), vehicle: Klucel (hydroxypropylcellulose) (HPC)",89 % of control
same,T/C,"dose: 200.0 mg/kg/injection, schedule: Q01DX001 (ip), vehicle: Klucel (hydroxypropylcellulose) (HPC)",100 % of control
same,T/C,"dose: 400.0 mg/kg/injection, schedule: Q01DX001 (ip), vehicle: Klucel (hydroxypropylcellulose) (HPC)",92 % of control
CC(C)(C)c1ccc(OS(=O)(=O)c2cccc([N+](=O)[O-])c2)cc1,T/C,[2],104 % of control
same,T/C,[3],99 % of control
same,T/C,[4],106 % of control
Nc1nc(-c2ccccc2)c(CCCOc2ccc([N+](=O)[O-])cc2)c(=O)[nH]1,T/C,[5],88 % of control
same,T/C,[6],91 % of control
same,T/C,"dose: 400.0 mg/kg/injection, schedule: Q01DX001 (ip), vehicle: carboxymethylcellulose (CMC)",88 % of control

# From PubChem BioAssay AID248 (DTP/NCI, 2004)
